For one compound, Ki and Kb results are on record in ChEMBL document CHEMBL1132111, “Design and synthesis of novel alpha(1)(a) adrenoceptor-selective antagonists. 4. Structure-activity relationship in the dihydropyrimidine series” (J Med Chem, 1999).

Assay [1] has as its target T1, Alpha-1D adrenergic receptor (Homo sapiens, UniProt P25100).
T1 sequence (P25100 whole entry): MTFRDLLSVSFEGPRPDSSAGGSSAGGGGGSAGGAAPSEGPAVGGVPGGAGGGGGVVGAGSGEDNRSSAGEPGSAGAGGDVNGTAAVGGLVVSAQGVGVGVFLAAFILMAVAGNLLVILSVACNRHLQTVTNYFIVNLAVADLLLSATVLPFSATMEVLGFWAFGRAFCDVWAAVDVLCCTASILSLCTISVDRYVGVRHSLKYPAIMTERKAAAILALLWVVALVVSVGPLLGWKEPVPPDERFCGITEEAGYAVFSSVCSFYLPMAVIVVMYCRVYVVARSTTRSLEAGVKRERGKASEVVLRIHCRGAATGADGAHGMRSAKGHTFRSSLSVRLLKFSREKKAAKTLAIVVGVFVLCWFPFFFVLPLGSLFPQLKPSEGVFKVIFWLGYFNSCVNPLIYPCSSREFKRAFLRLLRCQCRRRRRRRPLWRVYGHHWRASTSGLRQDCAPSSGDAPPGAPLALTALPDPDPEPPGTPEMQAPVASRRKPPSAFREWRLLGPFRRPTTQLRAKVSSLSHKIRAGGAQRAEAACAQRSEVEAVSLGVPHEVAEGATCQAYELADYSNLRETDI
The experiment in a line: Binding affinity against isolated human aorta using [3H]- prazosin. It is filed as tissue-based.

Assay [2] concerns the target T2, Alpha-1A adrenergic receptor (Homo sapiens, UniProt P35348).
T2 sequence (P35348 whole entry): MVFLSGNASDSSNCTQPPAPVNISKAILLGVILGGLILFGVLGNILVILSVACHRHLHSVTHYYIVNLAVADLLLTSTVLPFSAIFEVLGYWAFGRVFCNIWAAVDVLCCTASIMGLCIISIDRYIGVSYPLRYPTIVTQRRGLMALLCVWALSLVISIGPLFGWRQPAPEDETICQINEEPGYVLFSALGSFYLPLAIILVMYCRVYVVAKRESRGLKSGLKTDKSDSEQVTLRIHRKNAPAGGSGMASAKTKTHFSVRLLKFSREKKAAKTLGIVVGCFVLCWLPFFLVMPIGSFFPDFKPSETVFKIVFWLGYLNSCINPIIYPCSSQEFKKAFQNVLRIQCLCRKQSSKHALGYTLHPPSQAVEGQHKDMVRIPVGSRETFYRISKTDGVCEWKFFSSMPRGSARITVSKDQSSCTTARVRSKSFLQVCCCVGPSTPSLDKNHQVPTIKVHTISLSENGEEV
The experiment in a line: Binding affinity against isolated human prostate using [3H]- prazosin. It is filed as tissue-based, Prostate gland.

The target of assay [3] is T1, Alpha-1D adrenergic receptor. The assay is described as follows: Binding affinity against Alpha-1D adrenergic receptor (recombinant human receptor) using [3H]-prazosin.
Assay [4] addresses T3, Alpha-1B adrenergic receptor (Homo sapiens, UniProt P35368).
T3 sequence (P35368 whole entry): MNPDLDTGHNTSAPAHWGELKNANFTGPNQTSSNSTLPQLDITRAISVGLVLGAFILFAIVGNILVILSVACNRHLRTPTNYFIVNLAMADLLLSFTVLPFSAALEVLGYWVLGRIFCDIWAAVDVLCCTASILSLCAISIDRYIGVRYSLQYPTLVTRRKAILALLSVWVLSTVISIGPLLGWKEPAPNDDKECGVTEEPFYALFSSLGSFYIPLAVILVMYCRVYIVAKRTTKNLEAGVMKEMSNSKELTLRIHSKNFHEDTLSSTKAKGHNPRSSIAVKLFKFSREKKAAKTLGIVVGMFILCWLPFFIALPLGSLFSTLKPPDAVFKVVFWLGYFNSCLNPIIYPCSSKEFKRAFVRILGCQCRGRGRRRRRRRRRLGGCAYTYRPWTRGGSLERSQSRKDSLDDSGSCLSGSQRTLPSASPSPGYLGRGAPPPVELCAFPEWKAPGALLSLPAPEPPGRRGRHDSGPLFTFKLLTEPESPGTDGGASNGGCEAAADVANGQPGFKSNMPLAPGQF
The experiment in a line: Binding affinity against Alpha-1B adrenergic receptor (recombinant human receptor) using [3H]prazosin.

Assay [5] concerns the target T4, Alpha-1A adrenergic receptor (Rattus norvegicus, UniProt P43140).
T4 sequence (P43140 whole entry): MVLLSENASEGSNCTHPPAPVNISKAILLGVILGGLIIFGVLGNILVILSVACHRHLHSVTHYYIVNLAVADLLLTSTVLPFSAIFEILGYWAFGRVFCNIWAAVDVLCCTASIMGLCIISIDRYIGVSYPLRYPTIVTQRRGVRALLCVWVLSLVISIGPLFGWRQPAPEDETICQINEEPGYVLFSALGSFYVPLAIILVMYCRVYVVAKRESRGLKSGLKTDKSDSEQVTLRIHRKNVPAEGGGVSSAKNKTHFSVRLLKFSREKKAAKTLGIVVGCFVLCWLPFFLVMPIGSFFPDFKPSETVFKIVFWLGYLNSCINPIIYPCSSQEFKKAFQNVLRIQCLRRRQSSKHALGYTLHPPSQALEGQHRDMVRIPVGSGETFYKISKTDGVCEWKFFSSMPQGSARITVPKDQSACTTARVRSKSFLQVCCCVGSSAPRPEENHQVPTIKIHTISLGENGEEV
The assay is described as follows: Binding affinity against isolated rat prostate using [3H]- prazosin. It is filed as tissue-based, Prostate gland.

For another assay, the species on record is Rattus norvegicus. The assay is described as follows: Antagonistic activity inhibiting phenylephrine induced contractions in isolated rat prostate. It is filed as functional, Prostate gland.
The target in assay [6] is T2, Alpha-1A adrenergic receptor. The assay is described as follows: Binding affinity against Alpha-1A adrenergic receptor (recombinant human receptor) using [3H]prazosin.

As for `COC(=O)C1=C(C)N=C(C)N(CCCCCN2CCC(c3ccccc3)(c3ccccc3)CC2)C1c1ccc(F)c(F)c1` (configuration not stated), the inhibition constant Ki in assay [1] turned out to be 110 nM; in assay [2], 0.33 nM; in assay [3], 180 nM; in assay [4] it was 100 nM; in assay [5], 0.97 nM; in assay [6] it was 0.4 nM. Also, the antagonist dissociation constant (Kb) in the assay filed under Rattus norvegicus stood at 60 nM.

Usually Ki stands for the dissociation constant of the complex between target and ligand, obtained from inhibition or displacement. The term Kb denotes the equilibrium dissociation constant of an antagonist, usually derived from a functional assay.
